Here are results for 13 compounds from article PMC9114433 (Frontiers in Chemistry, 2022).

Data set [1] deals with T1, hHAO1 (Homo sapiens, UniProt Q9UJM8).
T1 sequence (Q9UJM8 1-368): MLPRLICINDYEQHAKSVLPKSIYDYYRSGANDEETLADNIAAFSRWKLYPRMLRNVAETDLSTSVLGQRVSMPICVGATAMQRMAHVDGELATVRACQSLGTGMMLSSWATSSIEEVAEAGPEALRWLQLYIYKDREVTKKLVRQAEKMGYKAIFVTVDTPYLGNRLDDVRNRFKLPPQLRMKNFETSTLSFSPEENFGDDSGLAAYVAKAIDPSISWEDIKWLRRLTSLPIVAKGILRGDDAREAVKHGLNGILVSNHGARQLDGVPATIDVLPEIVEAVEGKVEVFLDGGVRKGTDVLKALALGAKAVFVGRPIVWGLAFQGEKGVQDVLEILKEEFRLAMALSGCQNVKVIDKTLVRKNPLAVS
As to the kind of experiment: Amplex Red fluorescence hydrogen peroxide activity assay. As to conditions: for Km: substrate titration, 30 nM hHAO1; for inhibition mode with respect to glycolate: glycolate 0–500 µM, compound 0–1 mM, best fitting model in GraphPad Prism; for Vmax, Best-fit, 1 mM: Vmax in the presence of 1 mM compound, reaction rate as µM; for LLEAT (Astex lipophilic ligand efficiency score): from hHAO1 IC50; for fold increase in potency: relative to parent fragment scaffold (fragment 1 for 7, 8; fragment 2 for 9–12); for 95% CI α / α (Best-fit): mixed model inhibition fit; for 95% CI α: 95% confidence interval; for α (Best-fit): ratio between αKi (enzyme-substrate complex) and Ki (free enzyme). Also noted: A hHAO1 construct, encoding residues Met1-Ser368, with an engineered N-terminal His6-tag; His6 (N); made in house; host or cells: E. coli BL21 (DE3). The class given is biochemical. As to the method:
hHAO1 activity in vitro was determined using the Amplex Red fluorescence hydrogen peroxide assay (Sigma Aldrich). […] The assay buffer contained 50 mM sodium phosphate, pH 7.4, 200 mM KCl, 2 mM MgCl2, and 0.01% TritonX. Determination of suitable assay parameters is described in the Supplementary Material. […] Following 10 min incubation at room temperature, 10 µl/well of Amplex Red reagent was added. […] All reactions were performed in technical triplicates for two different preparations of hHAO1. Reaction rate, defined as total H2O2 produced by the hHAO1 reaction, was determined from the H2O2 standard curve. […] This value is defined as the […] the inhibition constant for the free enzyme (Ki) and the inhibition constant for the enzyme-substrate complex (αKi) and can be related to the initial velocity (V0), substrate concentration ([S]), inhibitor concentration ([I]), and other kinetic parameters (Km, Vmax, Ki) as follows: V0 = Vmax [S]/(Km (1 + [I]/Ki) + [S](1 + [I]/(α∗Ki))). […]
6.2 Establishing parameters for Amplex Red activity assay
HAO1 activity was measured by coupling production of H2O2 by hHAO1 with the H2O2-dependent conversion of Amplex Red to its fluorescent product resorufin by […] peroxidase (Figure S7A).
To determine an incubation period resulting in measurements being made at initial rate conditions that also generated sufficient fluorescence signal, activity of 30 nM hHAO1 in the presence of 30 μM glycolate was measured every 1.5 minutes for a period of 60 minutes ([…]).
To confirm recombinant hHAO1 used in this work was active, the reaction rate of 30 nM hHAO1 was measured across a range of glycolate (Figure S7C) and 2-hydroxypalmitate (Figure S7D) concentrations.
(1 picture or pasted object on this page, not shown here)
Figure S8: Set-up of hHAO1 Amplex Red activity assay. (A) Schematic showing how hHAO1 activity is measured using the Amplex Red assay. (B) Plot of reaction rate (hydrogen peroxide […], µM) of 30 nM hHAO1 over time (minutes) in the presence of 30 µM glycolate. (C) Plot of relative fluorescence versus hydrogen peroxide concentration showing the standard curve fitted within the linear range of the Amplex Red reagent. (D) Michaelis-Menten plot of glycolate concentration versus reaction rate for 30 nM hHAO1. Inset: chemical structure of glycolate. (E) Michaelis-Menten plot of 2-hydroxypalmitate concentration versus reaction rate for 30 nM hHAO1. Inset: chemical structure of 2-hydroxypalmitate.

For the next data set, the system named is mGO. More on the design: method as in ref Martin-Higueras, Luis-Lima, and Salido 2016; Moya-Garzón et al., 2018. As to conditions: purified mGO; ref Martin-Higueras, Luis-Lima, and Salido 2016; Moya-Garzón et al., 2018; cited from earlier work.
Data set [2] concerns rat LCHAO (equivalent to hHAO2). More on the design: method as in Chen et al., 2012. As to conditions: ref Chen et al., 2012; cited from earlier work.
The target of data set [3] is flavin dehydrogenase domain of yeast flavocytochrome b2. Also noted: method as in Chen et al., 2012. The settings on record: ref Chen et al., 2012; cited from earlier work.
In the next data set the test system is HAO. More on the design: method as in ref Chen et al., 2012; Martin-Higueras, Luis-Lima, and Salido 2016. As to conditions: published kinetics against mGO, rat LCHAO, yeast flavocytochrome b2, hHAO1; ref Chen et al., 2012; Martin-Higueras, Luis-Lima, and Salido 2016; cited from earlier work.
For data set [4], the target named is T1, hHAO1. As to conditions: read-out: Km (substrate), published value; ref Wang et al. 2016; cited from earlier work.
Where [5] appears, read: 30 nM hHAO1, 30 µM glycolate, log(inhibitor) vs response fit, read-out: IC50 (Best-fit).
Setting [6] is: 30 µM glycolate, 95% confidence interval of fit, read-out: 95% CI IC50.
[7] abbreviates: 95% confidence interval of fit, read-out: 95% CI Ki.
Where [8] appears, read: compound 0–1 mM vs glycolate 0–500 µM, read-out: Ki (Best-fit).
Where [9] appears, read: at 1 mM compound, glycolate titration.

Several values for one entry are separate records, joined by “and”; a condition that tells them apart may be missing. Equal values may be shown once. Read-outs that look alike come from different tables or passages of the source.

By Km is commonly meant the concentration of substrate that gives half-maximal velocity. `CCCCCCCCCCCCCCC(O)C(=O)O` (centres unmarked) [2-hydroxypalmitate]: at hHAO1 [1] (relative to glycolate), the “fold higher Km” value is on record as 100 fold. The Michaelis-Menten constant (Km) at hHAO1 [1] (read-out: Km apparent (substrate)) was determined as 1200 ± 400 µM.
For orientation: IC50 means the midpoint of a concentration-inhibition curve. Regarding `O=C(O)c1nnsc1Sc1ccc(Cl)cc1` [CCPST, 4-carboxy-5-[(4-chlorophenyl)sulfanyl]-1,2,3-thiadiazole], the IC50 in the data set with mGO is 43 to 198 µM; in data set [2], 3.6 µM; in data set [3], 6 µM. The inhibition mode result in the data set with HAO is listed as “non-competitive inhibition mode”. At hHAO1 [1], the “inhibition mode with respect to glycolate” value is listed as “competitive inhibition mode”.
Broadly, the Ki is a measure of affinity in units of concentration, obtained from inhibition or displacement. Turning to `O=C(NO)c1n[nH]c2ccccc12` [Compound 7], the 50% inhibitory concentration (IC50) at hHAO1 [1] (setting [5]) stood at 153 µM. For the same compound, at hHAO1 [1] (setting [6]), the half-maximal inhibitory concentration (IC50) lay in the range of 110 to 215 µM. The Ki on hHAO1 [1] (setting [7]) was 56.7 to 64.2 µM. Also, at hHAO1 [1], the “Vmax, Best-fit, 1 mM” value is recorded as 47.76 µM; the “LLEAT (Astex lipophilic ligand efficiency score)” value (shortened to “LLEAT”) worked out at 0.40 kcal/mol; the “fold increase in potency” value was found to be 5 fold. At hHAO1 [1] (setting [8]), the inhibitory constant (Ki) was 60.4 µM.
As for `NCCNC(=O)c1n[nH]c2ccccc12` [Compound 8], the IC50 at hHAO1 [1] (setting [5]) is 81 µM and 81.3 µM. Besides, at hHAO1 [1] (setting [6]), the concentration for half-maximal inhibition (IC50) is 57.1 to 117 µM. Moreover, the inhibition constant (Ki) on hHAO1 [1] (setting [7]) was 37.7 to 44.3 µM. On hHAO1 [1], the “Vmax, Best-fit, 1 mM” value came to 54.60 µM; the “LLEAT” value was 0.47 kcal/mol; the “inhibition mode with respect to glycolate” value was “competitive inhibition”; the “fold increase in potency” value was determined as 5 fold. Moreover, on hHAO1 [1] (setting [8]), the inhibition constant (Ki) was found to be 40.9 µM.
`Nc1c(C(=O)O)[nH]c(=O)[nH]c1=O` [Compound 9]: the half-maximal inhibitory concentration (IC50) at hHAO1 [1] (setting [5]) is 93 µM and 93.3 µM; at hHAO1 [1] (setting [6]), 48.1 to 193 µM. The inhibitory constant (Ki) at hHAO1 [1] (setting [7]) is 113 to 126 µM; on hHAO1 [1] (setting [8]), 119 µM. For the same compound, the “Vmax, Best-fit, 1 mM” value on hHAO1 [1] came out at 56.25 µM. Besides, the “LLEAT” value at hHAO1 [1] turned out to be 0.71 kcal/mol. At hHAO1 [1] (relative to compound 12), this compound registered a fold lower potency of 3 fold. For the same compound, the “fold increase in potency” value on hHAO1 [1] is reported as “more than 10 fold”.
On to `Cn1cc(N)c(=O)n(C)c1=O` [Compound 10], for which the IC50 at hHAO1 [1] (setting [5]) was 60 µM and 59.8 µM. For the same compound, at hHAO1 [1] (setting [6]), the IC50 fell in the range of 39.5 to 92 µM. Besides, on hHAO1 [1] (setting [7]), the inhibitory constant (Ki) is 157 to 177 µM. At hHAO1 [1], the “Vmax, Best-fit, 1 mM” value is given as 56.47 µM; the “LLEAT” value came to 0.77 kcal/mol; the “fold increase in potency” value was “more than 10 fold”. Also, on hHAO1 [1] (setting [8]), the Ki came out at 167 µM.
On to `Cn1cc(N)c(=O)[nH]c1=O` [Compound 11], for which the 50% inhibitory concentration (IC50) on hHAO1 [1] (setting [5]) is 40 µM and 39.8 µM; on hHAO1 [1] (setting [6]) it was 22.8 to 71.1 µM. Further, the Ki on hHAO1 [1] (setting [7]) is 219 to 248 µM; at hHAO1 [1] (setting [8]), 233 µM. At hHAO1 [1], the “Vmax, Best-fit, 1 mM” value was determined as 55.85 µM. The “LLEAT” value on hHAO1 [1] was determined as 0.88 kcal/mol. In addition, the “fold increase in potency” value on hHAO1 [1] is recorded as “more than 10 fold”.
For the compound `CC1=NC(=O)NC(=O)C1N` (centres unmarked) [Compound 12], the IC50 on hHAO1 [1] (setting [5]) was 27 µM and 27.4 µM; at hHAO1 [1] (setting [6]) it was 19.9 to 38 µM. Further, the Ki on hHAO1 [1] (setting [7]) is 141 to 156 µM; on hHAO1 [1] (setting [8]) it was 148 µM. The “Vmax, Best-fit, 1 mM” value at hHAO1 [1] came out at 54.05 µM. The “LLEAT” value at hHAO1 [1] was 0.89 kcal/mol. For the same compound, the “fold increase in potency” value on hHAO1 [1] is on record as “more than 10 fold”.
Consider `O=C(Nc1cccnc1)N1CCN(c2ccccc2O)CC1` [Compound 13], for which the IC50 at hHAO1 [1] (setting [5]) was 44 µM and 43.8 µM. Moreover, the IC50 on hHAO1 [1] (setting [6]) was 27.4 to 71.4 µM. In addition, on hHAO1 [1] (setting [7]), the Ki was in the range of 59.1 to 82.9 µM. Also, at hHAO1 [1], the “Vmax, Best-fit, 1 mM” value is on record as 27.28 µM; the “LLEAT” value is 0.30 kcal/mol; the “inhibition mode with respect to glycolate” value is listed as “mixed model inhibition”; the “95% CI α” value is given as 7.84–27.32. Also, the “α (Best-fit)” value on hHAO1 [1] is given as 13.27. For the same compound, the “fold increase in Km” value on hHAO1 [1] (setting [9]) is “up to 4 fold”. Besides, the Ki at hHAO1 [1] (setting [8]) turned out to be 69.7 µM.
As to `Cc1cc(NC(=O)N2CCN(c3cccc(O)c3)CC2)no1` [Compound 14], on hHAO1 [1] (setting [5]), the half-maximal inhibitory concentration (IC50) came out at 158 µM. In addition, the 50% inhibitory concentration (IC50) at hHAO1 [1] (setting [6]) was in the range of 100 to 256 µM. Further, the Ki at hHAO1 [1] (setting [7]) lay within 83.1 to 119 µM. At hHAO1 [1], the “Vmax, Best-fit, 1 mM” value is 43.12 µM; the “LLEAT” value was 0.25 kcal/mol; the “inhibition mode with respect to glycolate” value was “mixed model inhibition”; the “95% CI α” value is given as 9.41–59.28. For the same compound, the “α (Best-fit)” value on hHAO1 [1] was 18 and 18.4. At hHAO1 [1] (setting [9]), the “fold increase in Km” value is “up to 4.9 fold” and the “fold reduction in Vmax” value is reported as “up to 1.7 fold”. Moreover, the inhibitory constant (Ki) at hHAO1 [1] (setting [8]) was 98.9 µM.
For `Cn1nc(C(N)=O)c2ccccc21` [Fragment 1], the IC50 at hHAO1 [1] (setting [5]) turned out to be 420 µM.
By inhibition is commonly meant how much of the control response was suppressed. Low readings indicate a response near the control, high ones a response far below the control. `O=C(C1CC1)N1CCN(c2ccc(F)cc2)CC1` [Fragment 3]: the inhibition at 1000 µM against hHAO1 [1] (1 mM fragment) is 2%. On hHAO1 [1] (10 mM fragment), this compound gave an inhibition at 10000 µM of 19%.
Regarding `O=C(O)CO` [glycolate], the Km was 74.5 µM on hHAO1 [4] and 18.9 ± 0.8 µM on hHAO1 [1] (read-out: Km (substrate)).
